Source: ChEMBL document CHEMBL4627364, “Design, synthesis and biological evaluation of novel hybrids of N-aryl pyrrothine-base α-pyrone as bacterial RNA polymerase inhibitors” (Bioorg Med Chem Lett, 2020)
Converted amounts (≈) assume the structure as drawn.

Tests used:
Staphylococcus aureus [1] = experiment: Antibacterial activity against Staphylococcus aureus ATCC 29213 assessed as bacterial growth inhibition; type: functional
Enterococcus faecalis = experiment: Antibacterial activity against Enterococcus faecalis ATCC 29212 assessed as bacterial growth inhibition; type: functional
Escherichia coli [2] = experiment: Inhibition of Escherichia coli RNA polymerase at 200 uM relative to control
Escherichia coli [3] = experiment: Antibacterial activity against Escherichia coli ATCC 25922 assessed as bacterial growth inhibition; type: functional
Bacillus subtilis = experiment: Antibacterial activity against Bacillus subtilis ATCC 6633 assessed as bacterial growth inhibition; type: functional
Candida albicans = experiment: Antifungal activity against Candida albicans ATCC 10231 assessed as fungal growth inhibition; type: functional
Pseudomonas aeruginosa = experiment: Antibacterial activity against Pseudomonas aeruginosa ATCC 27853 assessed as bacterial growth inhibition; type: functional
Staphylococcus aureus [4] = experiment: Antibacterial activity against vancomycin-resistant Staphylococcus aureus assessed as bacterial growth inhibition; type: functional
HepG2 = experiment: Cytotoxicity against human HepG2 cells assessed as reduction in cell viability by MTT assay; type: cell-based
[5] = Inhibition of Escherichia coli RNA polymerase
Staphylococcus aureus [6] = experiment: Antibacterial activity against rifampicin-resistant Staphylococcus aureus assessed as bacterial growth inhibition; type: functional
Staphylococcus aureus [7] = experiment: Antibacterial activity against methicillin-resistant Staphylococcus aureus assessed as bacterial growth inhibition; type: functional
[8] = Inhibition of recombinant Escherichia coli RNA polymerase

SMILES	MIC (Staphylococcus aureus [1]) [µg/mL]	MIC (Enterococcus faecalis) [µg/mL]	inhibition (Escherichia coli [2]) [%]	MIC (Escherichia coli [3]) [µg/mL]	MIC (Bacillus subtilis) [µg/mL]	MIC (Candida albicans) [µg/mL]	MIC (Pseudomonas aeruginosa) [µg/mL]	MIC (Staphylococcus aureus [4]) [µg/mL]	IC50 (HepG2) [µM]	IC50 [5] [µM]	MIC (Staphylococcus aureus [6]) [µg/mL]	MIC (Staphylococcus aureus [7]) [µg/mL]	IC50 [8] [µM]
COc1ccc(-n2c3cssc-3c(NC(=O)CCCCC(=O)c3c(O)cc(C)oc3=O)c2=O)c(OC)c1	2 (≈ 3.67 µM)	64 (≈ 118 µM)	42.4	> 128	16 (≈ 29.4 µM)	> 128	> 128	–	–	–	–	–	–
COc1ccc(-n2c3cssc-3c(NC(=O)NCCOC(=O)CCCCC(=O)c3c(O)cc(C)oc3=O)c2=O)c(OC)c1	4 (≈ 6.33 µM)	16 (≈ 25.3 µM)	36.5	> 64	128 (≈ 203 µM)	> 128	> 128	–	–	–	–	–	–
COc1ccc(-n2c3cssc-3c(NC(=O)OCCOC(=O)CCCCC(=O)c3c(O)cc(C)oc3=O)c2=O)c(OC)c1	2 (≈ 3.16 µM)	16 (≈ 25.3 µM)	–	> 128	32 (≈ 50.6 µM)	> 128	> 128	2 to 4 (≈ 3.16 to 6.32 µM)	9.43	65.9	2 to 4 (≈ 3.16 to 6.32 µM)	1 to 2 (≈ 1.58 to 3.16 µM)	–
COc1ccc(-n2c3cssc-3c(NC(=O)NCCOC(=O)CCCCCCC(=O)c3c(O)cc(C)oc3=O)c2=O)c(OC)c1	128 (≈ 194 µM)	32 (≈ 48.5 µM)	–	> 128	128 (≈ 194 µM)	> 128	> 128	–	–	56.3	–	–	–
COc1ccc(-n2c3cssc-3c(NC(=O)OCCOC(=O)CCCC(=O)c3c(O)cc(C)oc3=O)c2=O)c(OC)c1	1 (≈ 1.62 µM)	4 (≈ 6.47 µM)	41.3	> 128	32 (≈ 51.7 µM)	> 128	> 128	4 to 8 (≈ 6.47 to 12.9 µM)	1.97	–	1 to 2 (≈ 1.62 to 3.23 µM)	1 to 2 (≈ 1.62 to 3.23 µM)	–
O=C(O)c1cn(C2CC2)c2cc(N3CCNCC3)c(F)cc2c1=O [CIPROFLOXACIN]	0.078 (≈ 0.235 µM)	0.5 (≈ 1.51 µM)	–	0.00625 (≈ 0.0189 µM)	0.125 (≈ 0.377 µM)	–	–	–	–	–	–	–	–
CN[C@H](CC(C)C)C(=O)N[C@H]1C(=O)N[C@@H](CC(N)=O)C(=O)N[C@H]2C(=O)N[C@H]3C(=O)N[C@H](C(=O)N[C@H](C(=O)O)c4cc(O)cc(O)c4-c4cc3ccc4O)[C@H](O)c3ccc(c(Cl)c3)Oc3cc2cc(c3O[C@@H]2O[C@H](CO)[C@@H](O)[C@H](O)[C@H]2O[C@H]2C[C@](C)(N)[C@H](O)[C@H](C)O2)Oc2ccc(cc2Cl)[C@H]1O [VANCOMYCIN]	–	–	–	> 128	1 (≈ 0.69 µM)	–	–	> 64	–	–	1 to 2 (≈ 0.69 to 1.38 µM)	1 to 2 (≈ 0.69 to 1.38 µM)	–
COc1ccc(-n2c3cssc-3c(NC(=O)OCCOC(=O)CCCCCCC(=O)c3c(O)cc(C)oc3=O)c2=O)c(OC)c1	1 (≈ 1.51 µM)	2 (≈ 3.03 µM)	–	> 128	32 (≈ 48.4 µM)	> 128	> 128	2 to 4 (≈ 3.03 to 6.05 µM)	7.04	16.1	1 to 2 (≈ 1.51 to 3.03 µM)	1 to 2 (≈ 1.51 to 3.03 µM)	–
COc1ccc(-n2c3cssc-3c(NC(=O)CCCC(=O)c3c(O)cc(C)oc3=O)c2=O)c(OC)c1	2 (≈ 3.77 µM)	16 (≈ 30.2 µM)	35.4	> 64	32 (≈ 60.3 µM)	> 128	> 128	4 to 8 (≈ 7.54 to 15.1 µM)	29	–	2 to 4 (≈ 3.77 to 7.54 µM)	1 to 2 (≈ 1.88 to 3.77 µM)	–
COc1ccc(-n2c3cssc-3c(NC(=O)N(C)CCOC(=O)CCCCCCC(=O)c3c(O)cc(C)oc3=O)c2=O)c(OC)c1	16 (≈ 23.7 µM)	8 (≈ 11.9 µM)	32.1	> 64	32 (≈ 47.5 µM)	> 128	> 128	–	–	–	–	–	–
CCC/C(C)=C/C=C(\C)C(=O)c1c(O)cc([C@H](C)CC/C=C/NC(=O)OC)oc1=O [MYXOPORIN A]	–	–	–	–	–	–	–	–	–	–	–	–	24
COc1ccc(-n2c3cssc-3c(NC(=O)N(C)CCOC(=O)CCCC(=O)c3c(O)cc(C)oc3=O)c2=O)c(OC)c1	2 (≈ 3.17 µM)	2 (≈ 3.17 µM)	23.8	> 128	32 (≈ 50.7 µM)	> 128	> 128	2 to 4 (≈ 3.17 to 6.33 µM)	5.32	–	2 to 4 (≈ 3.17 to 6.33 µM)	1 to 2 (≈ 1.58 to 3.17 µM)	–
COc1ccc(-n2c3cssc-3c(NC(=O)CCCCCCC(=O)c3c(O)cc(C)oc3=O)c2=O)c(OC)c1	64 (≈ 112 µM)	> 128	43.4	> 128	32 (≈ 55.9 µM)	> 128	> 128	–	–	–	–	–	–
COc1ccc(-n2c3cssc-3c(NC(=O)N(C)CCOC(=O)CCCCC(=O)c3c(O)cc(C)oc3=O)c2=O)c(OC)c1	2 (≈ 3.1 µM)	16 (≈ 24.8 µM)	–	> 128	32 (≈ 49.6 µM)	> 128	> 128	4 to 8 (≈ 6.19 to 12.4 µM)	2.76	45.9	1 to 2 (≈ 1.55 to 3.1 µM)	1 to 2 (≈ 1.55 to 3.1 µM)	–
CO[C@H]1/C=C/O[C@@]2(C)Oc3c(C)c(O)c4c(O)c(c(/C=N/N5CCN(C)CC5)c(O)c4c3C2=O)NC(=O)/C(C)=C\C=C\[C@H](C)[C@H](O)[C@@H](C)[C@@H](O)[C@@H](C)[C@H](OC(C)=O)[C@@H]1C [RIFAMPIN]	0.5 (≈ 0.608 µM)	0.5 (≈ 0.608 µM)	–	8 (≈ 9.72 µM)	0.125 (≈ 0.152 µM)	> 64	> 64	0.0625 to 0.125 (≈ 0.0759 to 0.152 µM)	145	0.14	> 64	0.125 to 0.25 (≈ 0.152 to 0.304 µM)	–
COc1ccc(-n2c3cssc-3c(NC(=O)NCCOC(=O)CCCC(=O)c3c(O)cc(C)oc3=O)c2=O)c(OC)c1	32 (≈ 51.8 µM)	4 (≈ 6.48 µM)	25.3	> 64	32 (≈ 51.8 µM)	> 128	> 128	–	–	–	–	–	–
